Laboratory results: PubChem BioAssay (NCI)
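At the GI50, growth is halved. TGI: total growth inhibition.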

Legend:
Experiment in all cases: NCI tumour cell line growth inhibition, 384-well format
[1] = test system: 786-0 renal
[2] = test system: A498 renal
[3] = test system: A549 NSCLC
[4] = test system: BT-549 breast
[5] = test system: CAKI-1 renal
[6] = test system: DU-145 prostate
[7] = test system: EKVX NSCLC
[8] = test system: HCT-116 colon
[9] = test system: HCT-15 colon
[10] = test system: HL-60(TB) leukemia
[11] = test system: HOP-62 NSCLC
[12] = test system: HOP-92 NSCLC
[13] = test system: HS 578T breast
[14] = test system: HT29 colon
[15] = test system: IGROV1 ovarian
[16] = test system: KM12 colon
[17] = test system: LOX IMVI melanoma
[18] = test system: MALME-3M melanoma
[19] = test system: MCF7 breast
[20] = test system: MDA-MB-435 melanoma
[21] = test system: MDA-MB-468 breast
[22] = test system: MOLT-4 leukemia
[23] = test system: NCI-H226 lung
[24] = test system: NCI-H322M lung
[25] = test system: NCI-H460 NSCLC
[26] = test system: NCI-H522 lung
[27] = test system: OVCAR-3 ovarian
[28] = test system: OVCAR-4 ovarian
[29] = test system: OVCAR-5 ovarian
[30] = test system: PC-3 prostate
[31] = test system: RPMI-8226 leukemia
[32] = test system: RXF 393 renal
[33] = test system: SF-295 CNS
[34] = test system: SF-539 CNS
[35] = test system: SK-MEL-2 melanoma
[36] = test system: SK-MEL-28 melanoma
[37] = test system: SK-MEL-5 melanoma
[38] = test system: SK-OV-3 ovarian
[39] = test system: SNB-75 CNS
[40] = test system: SR leukemia
[41] = test system: SW-620 colon
[42] = test system: T-47D breast
[43] = test system: TK-10 renal
[44] = test system: UACC-62 melanoma

SMILES: Cc1nc2c(-c3cnc(N)nc3)nc(N3CCOCC3)nc2n1C(C)C
- GI50 [1]: 246 nM
- TGI [1]: 5940 nM
- GI50 [2]: 55.9 nM
- TGI [2]: 322 nM
- GI50 [3]: 108 nM
- TGI [3]: 3600 nM
- GI50 [4]: 95.3 nM
- TGI [4]: 469 nM
- GI50 [5]: 75.1 nM
- TGI [5]: 581 nM
- GI50 [6]: 149 nM
- TGI [6]: > 100000 nM
- GI50 [7]: 86.6 nM
- TGI [7]: 380 nM
- GI50 [8]: 479 nM
- TGI [8]: > 100000 nM
- GI50 [9]: 76.1 nM
- TGI [9]: > 100000 nM
- GI50 [10]: 156 nM
- TGI [10]: 1040 nM
- GI50 [11]: 158 nM
- TGI [11]: 13000 nM
- GI50 [12]: 67.5 nM
- TGI [12]: 435 nM
- GI50 [13]: 66.1 nM
- TGI [13]: 273 nM
- GI50 [14]: 191 nM
- TGI [14]: > 100000 nM
- GI50 [15]: 21.8 nM
- TGI [15]: 133 nM
- GI50 [16]: 270 nM
- TGI [16]: > 100000 nM
- GI50 [17]: 232 nM
- TGI [17]: 860 nM
- GI50 [18]: 44.3 nM
- TGI [18]: 262 nM
- GI50 [19]: 36 nM
- TGI [19]: > 100000 nM
- GI50 [20]: 184 nM
- TGI [20]: 845 nM
- GI50 [21]: 65.9 nM
- TGI [21]: 351 nM
- GI50 [22]: 61.8 nM
- TGI [22]: 344 nM
- GI50 [23]: 122 nM
- TGI [23]: 2390 nM
- GI50 [24]: 125 nM
- TGI [24]: 50500 nM
- GI50 [25]: 39 nM
- TGI [25]: > 100000 nM
- GI50 [26]: 92.2 nM
- TGI [26]: 941 nM
- GI50 [27]: 107 nM
- TGI [27]: 713 nM
- GI50 [28]: 118 nM
- TGI [28]: 803 nM
- GI50 [29]: 190 nM
- TGI [29]: > 100000 nM
- GI50 [30]: 52.8 nM
- TGI [30]: > 100000 nM
- GI50 [31]: 59.6 nM
- TGI [31]: 252 nM
- GI50 [32]: 78.9 nM
- TGI [32]: 379 nM
- GI50 [33]: 79.1 nM
- TGI [33]: 431 nM
- GI50 [34]: 167 nM
- TGI [34]: 1120 nM
- GI50 [35]: 566 nM
- TGI [35]: 941 nM
- GI50 [36]: 153 nM
- TGI [36]: 969 nM
- GI50 [37]: 87.8 nM
- TGI [37]: 337 nM
- GI50 [38]: 92.7 nM
- TGI [38]: 430 nM
- GI50 [39]: 35.5 nM
- TGI [39]: 220 nM
- GI50 [40]: 195 nM
- TGI [40]: 619 nM
- GI50 [41]: 460 nM
- TGI [41]: > 100000 nM
- GI50 [42]: 31.3 nM
- TGI [42]: 166 nM
- GI50 [43]: 54.9 nM
- TGI [43]: 465 nM
- GI50 [44]: 147 nM
- TGI [44]: 847 nM
